Data reported in US4594338A, “Thioether derivatives of tylosin” (priority 1984, dated 1986).
≈ marks a conversion by molar mass, not a printed value.

What was measured:
Assay type in all cases: cell-based
[1] = system: Staphylococcus aureus ATCC 6538P; test: Minimum inhibitory concentration, Staphylococcus aureus ATCC 6538P; conditions: ATCC6538P
Source text: (§1) The compounds of formula (I) show antibacterial activity against both gram-positive and gram-negative bacteria. The following Tables illustrate minimum inhibitory concentrations (MIC's) for a representative sample of the compounds of the invention against gram-positive and gram-negative bacteria as well as bacteria resistant to antibiotics. In the Tables abbreviations with the symbol r attached designate resistant bacterial strains.

[2] = system: Staphylococcus aureus KB 199(EM^r); test: Minimum inhibitory concentration, Staphylococcus aureus KB 199(EM^r); conditions: Staphylococcus aureus KB 199, erythromycin-resistant (EM^r)
Source text: as §1

[3] = system: Bacillus subtilis PCI 219; test: Minimum inhibitory concentration, Bacillus subtilis PCI 219; conditions: PCI219
Source text: as §1

Bacillus cereus IFO 3001 = test: Minimum inhibitory concentration, Bacillus cereus IFO 3001; conditions: IFO3001
Source text: as §1

[4] = system: Micrococcus luteus ATCC 9341; test: Minimum inhibitory concentration, Micrococcus luteus ATCC 9341; conditions: ATCC9341
Source text: as §1

[5] = system: Mycobacterium smegmatis ATCC 607; test: Minimum inhibitory concentration, Mycobacterium smegmatis ATCC 607; conditions: Mycolicibacterium smegmatis, ATCC607
Source text: as §1

Escherichia coli NIHJ = test: Minimum inhibitory concentration, Escherichia coli NIHJ
Source text: as §1

[6] = system: Klebsiella pneumoniae ATCC 10031; test: Minimum inhibitory concentration, Klebsiella pneumoniae ATCC 10031; conditions: ATCC10031
Source text: as §1

[7] = system: Klebsiella pneumoniae PCI 602; test: Minimum inhibitory concentration, Klebsiella pneumoniae PCI 602; conditions: PCI602
Source text: as §1

[8] = system: Salmonella typhirium KB 20; test: Minimum inhibitory concentration, Salmonella typhirium KB 20; conditions: KB20, read-out: minimum inhibitory concentration (MIC)
Source text: as §1

[9] = system: Proteus vulgaris IFO 3167; test: Minimum inhibitory concentration, Proteus vulgaris IFO 3167; conditions: IFO3167
Source text: as §1

[10] = system: Pseudomonas aeruginosa P-3; test: Minimum inhibitory concentration, Pseudomonas aeruginosa P-3; conditions: P3
Source text: as §1

[11] = system: Staphylococcus aureus KB 191 (MC, TC^r); test: Minimum inhibitory concentration against resistant strain Staphylococcus aureus KB 191
Source text: as §1

[12] = system: Staphylococcus aureus KB 219 (MC, TC, PC, CP^r); test: Minimum inhibitory concentration against resistant strain Staphylococcus aureus KB 219
Source text: as §1

[13] = system: Staphylococcus aureus KB 224 (MC, TC, KM, SM^r); test: Minimum inhibitory concentration against resistant strain Staphylococcus aureus KB 224
Source text: as §1

[14] = system: Staphylococcus aureus KB 221 (MC, TC, CP, KM^r); test: Minimum inhibitory concentration against resistant strain Staphylococcus aureus KB 221
Source text: as §1

Row | SMILES | MIC [1] | MIC [2] | MIC [3] | MIC (Bacillus cereus IFO 3001) | MIC [4] | MIC [5] | MIC (Escherichia coli NIHJ) | MIC [6] | MIC [7] | MIC [8] | MIC [9] | MIC [10] | MIC [11] | MIC [12] | MIC [13] | MIC [14]
1 | CCC1OC(=O)CC(O)C(C)C(OC2OC(C)C(O)C(N(C)C)C2O)C(CC=O)CC(C)C(=O)CC(Sc2ccc(N)cc2)C(C)=CC1COC1OC(C)C(O)C(OC)C1OC (stereo not drawn) [Compound P, 11-(p-Aminophenylthio)-10,11-dihydrodemycarosyltylosin] | 3.12 µg/mL (≈ 3.48 µM) | > 100 µg/mL | 3.12 µg/mL (≈ 3.48 µM) | 0.78 µg/mL (≈ 0.869 µM) | 0.2 µg/mL (≈ 0.223 µM) | > 100 µg/mL | > 100 µg/mL | 100 µg/mL (≈ 111 µM) | > 100 µg/mL | > 100 µg/mL | > 100 µg/mL | > 100 µg/mL |  |  |  | 
2 | CCC1OC(=O)CC(O)C(C)C(OC2OC(C)C(O)C(N(C)C)C2O)C(CC=O)CC(C)C(=O)CC(SCCO)C(C)=CC1COC1OC(C)C(O)C(OC)C1OC (stereo not drawn) [O, 10,11-Dihydro-11-(2-hydroxyethylthio)demycarosyltylosin] | 12.5 µg/mL (≈ 14.7 µM) | > 100 µg/mL | 12.5 µg/mL (≈ 14.7 µM) | 3.12 µg/mL (≈ 3.67 µM) | 0.4 µg/mL (≈ 0.471 µM) | > 100 µg/mL | > 100 µg/mL | > 100 µg/mL | > 100 µg/mL | > 100 µg/mL | > 100 µg/mL | > 100 µg/mL |  |  |  | 
3 | CCSC1CC(=O)C(C)CC(CC=O)C(OC2OC(C)C(OC3CC(C)(O)C(O)C(C)O3)C(N(C)C)C2O)C(C)C(O)CC(=O)OC(CC)C(COC2OC(C)C(O)C(OC)C2OC)C=C1C (stereo not drawn) [Compound R, 11-(Ethylthio)-10,11-dihydrotylosin] | 1.56 µg/mL (≈ 1.59 µM) | > 100 µg/mL | 0.78 µg/mL (≈ 0.797 µM) | 0.78 µg/mL (≈ 0.797 µM) | < 0.1 µg/mL | 100 µg/mL (≈ 102 µM) | 100 µg/mL (≈ 102 µM) | 100 µg/mL (≈ 102 µM) | 100 µg/mL (≈ 102 µM) | > 100 µg/mL | > 100 µg/mL | > 100 µg/mL |  |  |  | 
4 | CCC1OC(=O)CC(O)C(C)C(OC2OC(C)C(OC3CC(C)(O)C(O)C(C)O3)C(N(C)C)C2O)C(CC=O)CC(C)C(=O)CC(Sc2ccc(N)cc2)C(C)=CC1COC1OC(C)C(O)C(OC)C1OC (stereo not drawn) [Compound U, 11-(p-Aminophenylthio)-10,11-dihydrotylosin] | 6.25 µg/mL (≈ 6 µM) | > 100 µg/mL | 0.4 µg/mL (≈ 0.384 µM) | 1.56 µg/mL (≈ 1.5 µM) | 0.78 µg/mL (≈ 0.749 µM) | > 100 µg/mL | > 100 µg/mL | > 100 µg/mL | > 100 µg/mL | > 100 µg/mL | > 100 µg/mL | > 100 µg/mL | 25 µg/mL (≈ 24 µM) | 50 µg/mL (≈ 48 µM) | 25 µg/mL (≈ 24 µM) | 
5 | CCC1OC(=O)CC(O)C(C)C(OC2OC(C)C(OC3CC(C)(O)C(O)C(C)O3)C(N(C)C)C2O)C(CC(Sc2ccccc2)Sc2ccccc2)CC(C)C(=O)C=CC(C)=CC1COC1OC(C)C(O)C(OC)C1OC (stereo not drawn) [Compound C, Tylosin Diphenyl Thioacetal] | 12.5 µg/mL (≈ 11.2 µM) | > 50 µg/mL | 0.78 µg/mL (≈ 0.697 µM) | 0.78 µg/mL (≈ 0.697 µM) | 0.2 µg/mL (≈ 0.179 µM) | 50 µg/mL (≈ 44.7 µM) | > 100 µg/mL | > 100 µg/mL | > 100 µg/mL | > 100 µg/mL | > 100 µg/mL |  |  |  |  | 
6 | CCC1OC(=O)CC(O)C(C)C(OC2OC(C)C(O)C(N(C)C)C2O)C(CC=O)CC(C)C(=O)CC(Sc2ccccc2)C(C)=CC1COC1OC(C)C(O)C(OC)C1OC (stereo not drawn) [Compound Q, 10,11-Dihydro-11-(phenylthio)demycarosyltylosin] | 0.78 µg/mL (≈ 0.884 µM) | > 100 µg/mL | 0.78 µg/mL (≈ 0.884 µM) | 0.2 µg/mL (≈ 0.227 µM) | < 0.1 µg/mL | > 100 µg/mL | 100 µg/mL (≈ 113 µM) | 100 µg/mL (≈ 113 µM) | 100 µg/mL (≈ 113 µM) | 100 µg/mL (≈ 113 µM) | 50 µg/mL (≈ 56.7 µM) | > 100 µg/mL |  |  |  | 
7 | CCC1OC(=O)CC(O)C(C)C(OC2OC(C)C(OC3CC(C)(O)C(O)C(C)O3)C(N(C)C)C2O)C(CC=O)CC(C)C(=O)CC(Sc2ccccc2)C(C)=CC1COC1OC(C)C(O)C(OC)C1OC (stereo not drawn) [Compound S, 10,11-Dihydro-11-(phenylthio)tylosin] | 1.56 µg/mL (≈ 1.52 µM) | 50 µg/mL (≈ 48.7 µM) | 0.4 µg/mL (≈ 0.39 µM) | 0.4 µg/mL (≈ 0.39 µM) | < 0.1 µg/mL | 50 µg/mL (≈ 48.7 µM) | 100 µg/mL (≈ 97.4 µM) | 100 µg/mL (≈ 97.4 µM) | 100 µg/mL (≈ 97.4 µM) | 100 µg/mL (≈ 97.4 µM) | 100 µg/mL (≈ 97.4 µM) | > 100 µg/mL | 50 µg/mL (≈ 48.7 µM) | 100 µg/mL (≈ 97.4 µM) | 50 µg/mL (≈ 48.7 µM) | 50 µg/mL (≈ 48.7 µM)
8 | CCC1OC(=O)CC(O)C(C)C(OC2OC(C)C(OC3CC(C)(O)C(O)C(C)O3)C(N(C)C)C2O)C(CC=O)CC(C)C(=O)CC(Sc2ccc(C)cc2)C(C)=CC1COC1OC(C)C(O)C(OC)C1OC (stereo not drawn) [Compound V, 10,11-Dihydro-11-(p-methylphenylthio)tylosin] | 3.12 µg/mL (≈ 3 µM) | 25 µg/mL (≈ 24 µM) | 0.4 µg/mL (≈ 0.384 µM) | 0.4 µg/mL (≈ 0.384 µM) | < 0.1 µg/mL | 50 µg/mL (≈ 48.1 µM) | 100 µg/mL (≈ 96.1 µM) | 100 µg/mL (≈ 96.1 µM) | 100 µg/mL (≈ 96.1 µM) | 100 µg/mL (≈ 96.1 µM) | 50 µg/mL (≈ 48.1 µM) | > 100 µg/mL |  |  |  | 
9 | CCC1OC(=O)CC(O)C(C)C(OC2OC(C)C(OC3CC(C)(O)C(O)C(C)O3)C(N(C)C)C2O)C(CC=O)CC(C)C(=O)CC(Sc2ccc(OC)cc2)C(C)=CC1COC1OC(C)C(O)C(OC)C1OC (stereo not drawn) [Compound W, 10,11-Dihydro-11-(p-methoxyphenylthio)tylosin] | 3.12 µg/mL (≈ 2.95 µM) | 50 µg/mL (≈ 47.3 µM) | 0.4 µg/mL (≈ 0.379 µM) | 0.4 µg/mL (≈ 0.379 µM) | < 0.1 µg/mL | > 100 µg/mL | 100 µg/mL (≈ 94.7 µM) | 100 µg/mL (≈ 94.7 µM) | 100 µg/mL (≈ 94.7 µM) | 100 µg/mL (≈ 94.7 µM) | 50 µg/mL (≈ 47.3 µM) | > 100 µg/mL | 50 µg/mL (≈ 47.3 µM) | 100 µg/mL (≈ 94.7 µM) | 50 µg/mL (≈ 47.3 µM) | 
10 | CCSC1CC(=O)C(C)CC(CC=O)C(OC2OC(C)C(O)C(N(C)C)C2O)C(C)C(O)CC(=O)OC(CC)C(COC2OC(C)C(O)C(OC)C2OC)C=C1C (stereo not drawn) [Compound N, 11-(Ethylthio)-10,11-dihydrodemycarosyltylosin] | 1.56 µg/mL (≈ 1.87 µM) | > 100 µg/mL | 0.78 µg/mL (≈ 0.935 µM) | 0.78 µg/mL (≈ 0.935 µM) | 0.2 µg/mL (≈ 0.24 µM) | > 100 µg/mL | > 100 µg/mL | 50 µg/mL (≈ 59.9 µM) | > 100 µg/mL | > 100 µg/mL | > 100 µg/mL | > 100 µg/mL |  |  |  | 
11 | CCC1OC(=O)CC(O)C(C)C(OC2OC(C)C(OC3CC(C)(O)C(O)C(C)O3)C(N(C)C)C2O)C(CC=O)CC(C)C(=O)CC(Sc2ccc(Cl)cc2)C(C)=CC1COC1OC(C)C(O)C(OC)C1OC (stereo not drawn) [Compound T, 11-(p-Chlorophenylthio)-10,11-dihydrotylosin] | 3.12 µg/mL (≈ 2.94 µM) | 25 µg/mL (≈ 23.6 µM) | 0.4 µg/mL (≈ 0.377 µM) | 0.4 µg/mL (≈ 0.377 µM) | < 0.1 µg/mL | 50 µg/mL (≈ 47.1 µM) | 100 µg/mL (≈ 94.3 µM) | 100 µg/mL (≈ 94.3 µM) | 100 µg/mL (≈ 94.3 µM) | 100 µg/mL (≈ 94.3 µM) | 50 µg/mL (≈ 47.1 µM) | > 100 µg/mL | 25 µg/mL (≈ 23.6 µM) | 50 µg/mL (≈ 47.1 µM) | 25 µg/mL (≈ 23.6 µM) | 
